These results are taken from US7135466B2 (Kirin Beer Kabushiki Kaisha, priority 1999, dated 2006).

Molecules are shown by their SMILES. Like-named read-outs stand apart in the source and are kept apart here. Bounds are passed on as bounds.

For the assay, the target named is T1, PDGF-Ra (Homo sapiens, UniProt P16234).
T1 construct: host or cells: G-292 human osteosarcoma cells
Put plainly: Inhibitory activity against PDGF-Ra phosphorylation by PDGF-AA stimulation using G292. The assay is classed as cell-based. Conditions: for IC50: > means inhibition at indicated concentration not more than 50%, < and << not less than 50%, read-out: PDGF (E) IC50; for inhibition at 0.1 µM: G292, at 100 nM, read-out: PDGF (E) inhibition (%) at 100 nM. Here is the method:
Measurement of Inhibitory Activity Against PDGF-Ra Phosphorylation by PDGF-AA Stimulation Using G292
G-292 human osteosarcoma cells (Dainippon Pharmaceutical Co. Ltd.) were cultured in a DMEM medium (Dainippon Pharmaceutical Co. Ltd.) containing 10% FBS within an incubator containing 5% carbon dioxide until 80% confluent, and the cells were planted at 3×10^4 cells per well in 96-well flat-bottom plates in the same medium containing 0.1% FBS. After cultivation at 37° C. overnight, a solution of a test compound in dimethyl sulfoxide was added to each well, and a reaction was allowed to proceed at 37° C. for one hr.
After the reaction of the test compound, PDGF-AA (Upstate) was added to 50 ng/ml, and the cells were stimulated at 37° C. for 5 min. Thereafter, the cells were solubilized and shaken at room temperature for 20 min.
This solubilized cell solution was transferred to a 96-well plate coated with aniti-phosphotyrosine antibody PY-20, and a reaction was allowed to proceed at 4° C. overnight. Anti-PDGF-Ra (c-20) (Santa Cruz) was added as a primary antibody, and a reaction was allowed to proceed for one hr. GAR (Anti-rabbit Ig, horseradish peroxidase, Amersham) was then added as a secondary antibody, and a reaction was allowed to proceed for one hr. Color development was carried out using a color development kit for peroxidase (Sumitomo Bakelite Co., Ltd.), and the absorbance was measured at 450 nm.

Where [1] appears, read: figure within parentheses in >100( ).

T1 sequence (P16234 24-1089): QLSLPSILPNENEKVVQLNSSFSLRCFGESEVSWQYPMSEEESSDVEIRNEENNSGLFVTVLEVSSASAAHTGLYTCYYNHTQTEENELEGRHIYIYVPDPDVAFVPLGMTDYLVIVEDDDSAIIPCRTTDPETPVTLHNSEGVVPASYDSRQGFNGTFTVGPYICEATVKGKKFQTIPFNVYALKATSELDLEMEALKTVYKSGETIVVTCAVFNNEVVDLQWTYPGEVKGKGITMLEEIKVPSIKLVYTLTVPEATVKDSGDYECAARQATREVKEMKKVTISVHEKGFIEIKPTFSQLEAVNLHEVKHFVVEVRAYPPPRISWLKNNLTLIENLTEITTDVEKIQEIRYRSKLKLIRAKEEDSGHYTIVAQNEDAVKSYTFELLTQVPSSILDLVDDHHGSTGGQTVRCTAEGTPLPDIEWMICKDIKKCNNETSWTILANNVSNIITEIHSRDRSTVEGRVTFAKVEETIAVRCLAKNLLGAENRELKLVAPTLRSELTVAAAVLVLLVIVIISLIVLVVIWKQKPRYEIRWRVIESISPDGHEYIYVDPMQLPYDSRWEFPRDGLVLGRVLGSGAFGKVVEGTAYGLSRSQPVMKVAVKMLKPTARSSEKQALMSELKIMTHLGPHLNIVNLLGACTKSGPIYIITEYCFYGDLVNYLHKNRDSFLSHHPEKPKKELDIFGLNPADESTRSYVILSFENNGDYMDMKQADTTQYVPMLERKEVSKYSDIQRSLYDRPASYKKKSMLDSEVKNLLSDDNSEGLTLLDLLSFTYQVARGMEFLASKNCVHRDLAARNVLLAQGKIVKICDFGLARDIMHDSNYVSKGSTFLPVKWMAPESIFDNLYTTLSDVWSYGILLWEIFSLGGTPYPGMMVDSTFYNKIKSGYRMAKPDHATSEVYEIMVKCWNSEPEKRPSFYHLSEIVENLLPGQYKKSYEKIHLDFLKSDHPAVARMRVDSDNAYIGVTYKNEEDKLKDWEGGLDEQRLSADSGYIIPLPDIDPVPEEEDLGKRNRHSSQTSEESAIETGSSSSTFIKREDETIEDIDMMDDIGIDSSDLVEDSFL

Usually IC50 stands for the concentration that gives 50% inhibition. As to `COc1cc2nccc(Oc3cc(C)c(NC(=O)OCCN(C)C)cc3C)c2cc1OC` [Example 190, 2-(Dimethylamino)ethyl N-{4-[(6,7-dimethoxy-4-quinolyl)oxy]-2,5-dimethylphenyl}carbamate], the half-maximal inhibitory concentration (IC50) (Pharmacological Test Example 1) is above 100 nM.

With `COc1cc2nccc(Oc3ccc(NC(=O)OCCCCN(C)C)c(C)c3C)c2cc1OC` [Example 193, 4-(Dimethylamino)butyl N-{4-[(6,7-dimethoxy-4-quinolyl)oxy]-2,3-dimethylphenyl}carbamate], where the note is “Pharmacological Test Example 1”, the half-maximal inhibitory concentration (IC50) is 57 nM.

Take `COc1cc2nccc(Oc3ccc(NC(=O)OC(c4ccccc4)C(C)C)cc3)c2cc1OC` (centres unmarked) [Example 195, 2-Methyl-1-phenylpropyl N-{4-[(6,7-dimethoxy-4-quinolyl)oxy]phenyl}carbamate]: the half-maximal inhibitory concentration (IC50) (Pharmacological Test Example 1) stood at 66 nM.

On to `COc1cc2nccc(Oc3ccc(NC(=O)OC(c4ccccc4)C(C)C)c(C)c3C)c2cc1OC` (centres unmarked) [Example 196, 2-Methyl-1-phenylpropyl N-{4-[(6,7-dimethoxy-4-quinolyl)oxy]-2,3-dimethylphenyl}carbamate], for which the IC50 (Pharmacological Test Example 1) was determined as 49 nM.

With `COc1cc2nccc(Oc3cc(C)c(NC(=O)OC(c4ccccc4)C(C)C)cc3C)c2cc1OC` (centres unmarked) [Example 197, 2-Methyl-1-phenylpropyl N-{4-[(6,7-dimethoxy-4-quinolyl)oxy]-2,5-dimethylphenyl}carbamate], the IC50 (Pharmacological Test Example 1) stood at 93 nM.

As for `COc1cc2ncnc(Oc3ccc(NC(=O)OC(c4ccccc4)C(C)C)cc3)c2cc1OC` (centres unmarked) [Example 198, 2-Methyl-1-phenylpropyl N-{4-[(6,7-dimethoxy-4-quinazolinyl)oxy]phenyl}carbamate], where the note is “Pharmacological Test Example 1”, the IC50 amounted to 21 nM.

In the case of `COc1cc2nccc(Oc3cc(C)c(NC(=O)OC(C)c4cccc(N(C)C)c4)cc3C)c2cc1OC` (centres unmarked) [Example 201, 1-[3-(Dimethylamino)phenyl]ethyl N-{4-[(6,7-dimethoxy-4-quinolyl)oxy]-2,5-dimethylphenyl}-carbamate], the IC50 (Pharmacological Test Example 1) is above 100 nM.

Regarding `COc1cc2nccc(Oc3cc(C)c(NC(=O)OCCOc4ccccc4F)cc3C)c2cc1OC` [Example 205, 2-(2-Fluorophenoxy)ethyl N-{4-[(6,7-dimethoxy-4-quinolyl)oxy]-2,5-dimethylphenyl}carbamate], for the setting “Pharmacological Test Example 1”, the IC50 is 78 nM.

For `COc1cc2nccc(Oc3cc(C)c(NC(=O)OCCOc4cccc(F)c4)cc3C)c2cc1OC` [Example 209, 2-(3-Fluorophenoxy)ethyl N-{4-[(6,7-dimethoxy-4-quinolyl)oxy]-2,5-dimethylphenyl}carbamate], the IC50 (Pharmacological Test Example 1) is above 100 nM.

Take `COc1cc2nccc(Oc3ccc(NC(=O)OCCC4CCCCC4)cc3)c2cc1OC` [Example 353, 2-Cyclohexylethyl N-{4-[(6,7-dimethoxy-4-quinolyl)oxy]phenyl}carbamate]: for the setting “Pharmacological Test Example 1”, the IC50 is below 10 nM.

On to `COc1cc2nccc(Oc3cc(C)c(NC(=O)OCC4CC4)cc3C)c2cc1OC` [Example 381, Cyclopropylmethyl N-{4-[(6,7-dimethoxy-4-quinolyl)oxy]-2,5-dimethylphenyl}carbamate], for which, for the setting “Pharmacological Test Example 1”, the IC50 stood at 66 nM.

A word on the inhibition: it is the share of the control response that was lost under treatment. For `COc1cc2ncnc(Oc3ccc(NC(=O)OCC4CC4)c(Cl)c3)c2cc1OC` [Example 384, Cyclopropylmethyl N-{2-chloro-4-[(6,7-dimethoxy-4-quinazolinyl)oxy]phenyl}carbamate], for the setting “figure in parentheses in >100( )”, the inhibition at 0.1 µM was determined as 37%. The 50% inhibitory concentration (IC50) (Pharmacological Test Example 1) was above 100 nM.

`COc1cc2ncnc(Oc3ccc(NC(=O)OCC4CCC4)c(Cl)c3)c2cc1OC` [Example 389, Cyclobutylmethyl N-{2-chloro-4-[(6,7-dimethoxy-4-quinazolinyl)oxy]phenyl}carbamate]: the 50% inhibitory concentration (IC50) (Pharmacological Test Example 1) was 51 nM.

On to `COc1cc2nccc(Oc3cc(C)c(NC(=O)OCCCN4CCCCC4)cc3C)c2cc1OC` [Example 414, 3-Piperidinopropyl N-{4-[(6,7-dimethoxy-4-quinolyl)oxy]-2,5-dimethylphenyl}carbamate], for which the IC50 was above 100 nM. For the same compound, the inhibition at 0.1 µM under setting [1] came to 27%.

With `COc1cc2nccc(Oc3ccc(NC(=O)ON4C(=O)c5ccccc5C4=O)cc3)c2cc1OC` [Example 416, 1,3-Dioxo-2,3-dihydro-1H-2-isoindolyl N-{4-[(6,7-dimethoxy-4-quinolyl)oxy]phenyl}carbamate], the half-inhibitory concentration (IC50) was above 100 nM. Also, under setting [1], the inhibition at 0.1 µM is 49%.

Turning to `COc1cc2nccc(Oc3cc(C)c(NC(=O)OCN4C(=O)c5ccccc5C4=O)cc3C)c2cc1OC` [Example 417, (1,3-Dioxo-2,3-dihydro-1H-2-isoindolyl)methyl N-{4-[(6,7-dimethoxy-4-quinolyl)oxy]-2,5-dimethylphenyl}carbamate], the IC50 is above 100 nM. Moreover, the inhibition at 0.1 µM under setting [1] is 42%.

Consider `COc1cc2nccc(Oc3cc(C)c(NC(=O)OCCN4C(=O)c5ccccc5C4=O)cc3C)c2cc1OC` [Example 419, 2-(1,3-Dioxo-2,3-dihydro-1H-2-isoindolyl)ethyl N-{4-[(6,7-dimethoxy-4-quinolyl)oxy]-2,5-dimethylphenyl}carbamate], for which the IC50 was above 100 nM. The inhibition at 0.1 µM under setting [1] was found to be 47%.

For the compound `CCCC(CCN(CC)CC)OC(=O)Nc1ccc(Oc2ccnc3cc(OC)c(OC)cc23)cc1` (centres unmarked) [Example 441, 1-[2-(Diethylamino)ethyl]butyl N-{4-[(6,7-dimethoxy-4-quinolyl)oxy]phenyl}carbamate], the half-maximal inhibitory concentration (IC50) was found to be 70 nM.

On to `COc1cc2nccc(Oc3ccc(NC(=O)OC(C#N)c4ccccc4)cc3)c2cc1OC` (centres unmarked) [Example 453, Cyano(phenyl)methyl N-{4-[(6,7-dimethoxy-4-quinolyl)oxy]phenyl}carbamate], for which the half-inhibitory concentration (IC50) was above 100 nM. Further, the inhibition at 0.1 µM under setting [1] worked out at 1%.

With `COc1cc2nccc(Oc3cc(C)c(NC(=O)OC(C#N)c4ccccc4)cc3C)c2cc1OC` (centres unmarked) [Example 454, Cyano(phenyl)methyl N-{4-[(6,7-dimethoxy-4-quinolyl)oxy]-2,5-dimethylphenyl}carbamate], the IC50 was above 100 nM. For the same compound, the inhibition at 0.1 µM under setting [1] is 23%.

Consider `COc1cc2nccc(Oc3ccc(NC(=O)OC(C#N)c4ccccc4)c(C)c3C)c2cc1OC` (centres unmarked) [Example 455, Cyano(phenyl)methyl N-{4-[(6,7-dimethoxy-4-quinolyl)oxy]-2,3-dimethylphenyl}carbamate], for which the 50% inhibitory concentration (IC50) was 77 nM.

For `COc1cc2ncnc(Oc3ccc(NC(=O)Oc4ccccc4C#N)cc3)c2cc1OC` [Example 456, 2-Cyanophenyl N-{4-[(6,7-dimethoxy-4-quinazolinyl)oxy]phenyl}carbamate], the IC50 was above 100 nM. For the same compound, the inhibition at 0.1 µM under setting [1] was determined as 21%.

Consider `COc1cc2nccc(Oc3ccc(NC(=O)Oc4cccc(C#N)c4)cc3)c2cc1OC` [Example 457, 3-Cyanophenyl N-{4-[(6,7-dimethoxy-4-quinolyl)oxy]phenyl}carbamate], for which the IC50 was above 100 nM. Also, the inhibition at 0.1 µM under setting [1] is 29%.

For the compound `COc1cc2nccc(Oc3cc(C)c(NC(=O)Oc4cccc(C#N)c4)cc3C)c2cc1OC` [Example 458, 3-Cyanophenyl N-{4-[(6,7-dimethoxy-4-quinolyl)oxy]-2,5-dimethylphenyl}carbamate], the IC50 was above 100 nM. Moreover, the inhibition at 0.1 µM under setting [1] was 18%.

Regarding `COc1cc2nccc(Oc3cc(C)c(NC(=O)Oc4ccc(C#N)cc4)cc3C)c2cc1OC` [Example 460, 4-Cyanophenyl N-{4-[(6,7-dimethoxy-4-quinolyl)oxy]-2,5-dimethylphenyl}carbamate], the concentration for half-maximal inhibition (IC50) was above 100 nM. The inhibition at 0.1 µM under setting [1] is 15%.

As for `COc1cc2nccc(Oc3ccc(NC(=O)Oc4ccc(C#N)cc4)c(C)c3C)c2cc1OC` [Example 461, 4-Cyanophenyl N-{4-[(6,7-dimethoxy-4-quinolyl)oxy]-2,3-dimethylphenyl}carbamate], the IC50 was 60 nM.

Consider `COc1cc2ncnc(Oc3ccc(NC(=O)OC4CCCN(C)C4)cc3)c2cc1OC` (centres unmarked) [Example 465, 1-Methyl-3-piperidyl N-{4-[(6,7-dimethoxy-4-quinazolinyl)oxy]phenyl}carbamate], for which the concentration for half-maximal inhibition (IC50) worked out at 56 nM.

Take `COc1cc2nccc(Oc3ccc(NC(=O)OC4CCN(C)CC4)cc3)c2cc1OC` [Example 466, 1-Methyl-4-piperidyl N-{4-[(6,7-dimethoxy-4-quinolyl)oxy]phenyl}carbamate]: the IC50 is above 100 nM. The inhibition at 0.1 µM under setting [1] is 16%.

Turning to `COc1cc2nccc(Oc3cc(C)c(NC(=O)OC4CCN(C)CC4)cc3C)c2cc1OC` [Example 467, 1-Methyl-4-piperidyl N-{4-[(6,7-dimethoxy-4-quinolyl)oxy]-2,5-dimethylphenyl}carbamate], the IC50 is above 100 nM. Further, the inhibition at 0.1 µM under setting [1] turned out to be 8%.

For the compound `COc1cc2nccc(Oc3ccc(NC(=O)OC4CCN(C)CC4)c(C)c3C)c2cc1OC` [Example 468, 1-Methyl-4-piperidyl N-{4-[(6,7-dimethoxy-4-quinolyl)oxy]-2,3-dimethylphenyl}carbamate], the IC50 is above 100 nM. Also, the inhibition at 0.1 µM under setting [1] worked out at 20%.
